From patent US20130123281A1, “Compositions and Methods for Inhibition of TBL-1 Binding to Disease-Associated Molecules” (BETA CAT PHARMACEUTICALS, LLC, priority 2011, published 2013) come the findings set out here.

Molecules are shown by their SMILES.

Test [1] addresses T1, interaction of β-catenin with TBL1 (Homo sapiens, UniProt O60907).
T1 construct: endogenous in cells; host or cells: HCT15 (A2 also names HCT116)
T1 sequence (O60907 1-577): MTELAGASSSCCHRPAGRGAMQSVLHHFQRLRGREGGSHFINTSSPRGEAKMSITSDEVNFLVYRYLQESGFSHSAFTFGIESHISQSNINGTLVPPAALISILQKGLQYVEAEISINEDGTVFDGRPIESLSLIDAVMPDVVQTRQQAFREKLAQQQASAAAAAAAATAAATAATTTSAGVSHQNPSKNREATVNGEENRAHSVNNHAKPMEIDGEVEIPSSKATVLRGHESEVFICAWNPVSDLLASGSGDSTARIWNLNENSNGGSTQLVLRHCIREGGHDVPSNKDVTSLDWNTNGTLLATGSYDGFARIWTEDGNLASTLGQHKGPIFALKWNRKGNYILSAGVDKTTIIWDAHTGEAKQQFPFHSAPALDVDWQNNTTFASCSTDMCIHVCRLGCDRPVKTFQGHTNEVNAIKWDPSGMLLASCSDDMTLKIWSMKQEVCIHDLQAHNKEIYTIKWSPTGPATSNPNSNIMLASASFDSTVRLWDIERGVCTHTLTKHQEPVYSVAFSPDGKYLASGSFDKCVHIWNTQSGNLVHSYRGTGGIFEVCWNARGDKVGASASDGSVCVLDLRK
Description: Immunoprecipitation with TBL1 antibody and Western blot for β-catenin. Type of test: cell-based. Particulars: HCT15 cells treated for 6 h, Western blot. The method, then: FIG. 2 depicts Western blot of an immunoprecipitation using TBL1 antibody. HCT15 cells were incubated with DMSO or indicated concentration of compound for 6 hours. Cell lysates were made and immunoprecipitated with TBL1 antibody. Proteins were separated on an SDS gel, transferred to a membrane and probed with antibodies to β-catenin and to TBL1. Briefly, the HCT15 cell line was seeded at 70% confluence in medium containing 10% FBS and penicillin/streptomycin. After 24 h the cells were treated with Compound 1 for 6 h. Cell lysates were harvested, precleared with protein NG sepharose (Santa Cruz Biotech), and TBL1 was immunoprecipitated using mouse TBL1 antibody (Santa Cruz Biotech) conjugated to protein G sepharose (Santa Cruz Biotech). Immunoprecipitated proteins were resolved on a 10% SDS-PAGE gel followed by transfer of proteins to a nitrocellulose membrane. Western blot analysis was done using antibodies to detect β-catenin protein (BD Transduction Laboratories) and TBL1 protein (Santa Cruz Biotech).
In general terms: Immunoblotting shows a protein as a band on a membrane.

Another test deals with T2, TBL1:β-catenin complex (Homo sapiens, UniProt O60907).
T2 construct: endogenous in cells; host or cells: HCT15 (A2 also names HCT116)
T2 sequence (O60907 1-577): T1 sequence (O60907 1-577)
Description: Sandwich ELISA capturing the TBL1:β-catenin complex from treated cell lysates. It is filed as cell-based. The method, then:
HCT 15 cells are incubated with 20 mM LiCl to induce the Wnt pathway. After 24 h fresh medium with 20 mM LiCl and test agent is added at concentration in the range of 0.3 nM to 3 μM for 6 hours at 37° C. Protein lysates are prepared from cells lysed in RIPA buffer containing protease inhibitors, High affinity binding Sandwich Elisa assays were prepared in 96 well Maxisorp plates (NUNC) by coating with 100 μl in each well of unlabeled capture TBL1 antibody (Santa Cruz Biotech) diluted to a final concentration of 2 ug/ml in carbonate/bicarbonate coating buffer, and incubated 18 hours at 4° C. […] The sealed plate was incubated for 2 h at RT, washed 3 times with PBS 0.05% Tween-20, and then the complex and the recombinant protein was detected by antibody against β-catenin (Cell Signaling Tech) and secondary antibody HRP-conjugated (Sigma). Signal was detected by addition of ABTS HRP substrate
(SIGMA), and read with a microplate reader set to 405 nm.
To determine the amount of β-catenin captured, a standard curve was created using recombinant β-catenin (100 fg to 100 ng, Abnova) added instead of cell lysates in the above procedure. Intensity of signal was compared to values generated using test article treated lysates and approximate amount of bound beta catenin determined. […]
(In general: ELISA stands for enzyme-linked immunosorbent assay.)

Test [2] addresses T3, full length recombinant human TBL1 (Homo sapiens, UniProt O60907).
T3 construct: full length recombinant human TBL1 or full length recombinant human β-catenin; purchased ABNOVA
T3 sequence (O60907 1-577): T1 sequence (O60907 1-577)
Description: Saturation binding assay with biotinylated compound on coated TBL1. Particulars: biotinylated compound 0.1 nM to 10 μM, 2 h at room temperature; read-out: IC50 of binding to TBL1 at the equilibrium. Here is the method:
(§1) Additionally, Compound 1 can be modified to contain a functional group, such as biotin, capable of being attached to a solid support and test agents identified that disrupt the binding of immobilized Compound 1 to TBL1 protein. High affinity binding Elisa 96 well plate (Maxisorp, Nunc) was coated with 100 μl to each well of full length recombinant human TBL1 or full length recombinant human β-catenin (ABNOVA) diluted to a final concentration of 1 μg/ml in carbonate/bicarbonate coating buffer, sealed to prevent evaporation, and incubated O/N at 4° C. […] The sealed plate was incubated for 2 h at room temperature, washed 3 times with PBS 0.05% Tween-20, and then the bounded compound was detected by streptavidin-HRP conjugated antibody (Cell Signaling Tech) diluted in blocking buffer. Elisa was developed by addition of ABTS HRP substrate (SIGMA), and the optical density (OD) for each well was read with a microplate reader set to 405 nm. […]
(§2) To determine whether the ability of BC2059 to interfere with TBL1:β-catenin complex formation is due to direct interaction between TBL1 or β-catenin and the compound, we performed saturation binding assays in a in vitro system. […] The sealed plate was incubated for 2 h at RT, washed 3 times with PBS 0.05% Tween-20, and then the bounded compound was detected by streptavidin-HRP conjugated antibody (Cell Signaling Tech) diluted in blocking buffer. […]

Test [3] has as its target T4, full length recombinant human β-catenin (Homo sapiens, UniProt P35222).
T4 construct: full length recombinant human β-catenin (ABNOVA); purchased ABNOVA
T4 sequence (P35222 1-781): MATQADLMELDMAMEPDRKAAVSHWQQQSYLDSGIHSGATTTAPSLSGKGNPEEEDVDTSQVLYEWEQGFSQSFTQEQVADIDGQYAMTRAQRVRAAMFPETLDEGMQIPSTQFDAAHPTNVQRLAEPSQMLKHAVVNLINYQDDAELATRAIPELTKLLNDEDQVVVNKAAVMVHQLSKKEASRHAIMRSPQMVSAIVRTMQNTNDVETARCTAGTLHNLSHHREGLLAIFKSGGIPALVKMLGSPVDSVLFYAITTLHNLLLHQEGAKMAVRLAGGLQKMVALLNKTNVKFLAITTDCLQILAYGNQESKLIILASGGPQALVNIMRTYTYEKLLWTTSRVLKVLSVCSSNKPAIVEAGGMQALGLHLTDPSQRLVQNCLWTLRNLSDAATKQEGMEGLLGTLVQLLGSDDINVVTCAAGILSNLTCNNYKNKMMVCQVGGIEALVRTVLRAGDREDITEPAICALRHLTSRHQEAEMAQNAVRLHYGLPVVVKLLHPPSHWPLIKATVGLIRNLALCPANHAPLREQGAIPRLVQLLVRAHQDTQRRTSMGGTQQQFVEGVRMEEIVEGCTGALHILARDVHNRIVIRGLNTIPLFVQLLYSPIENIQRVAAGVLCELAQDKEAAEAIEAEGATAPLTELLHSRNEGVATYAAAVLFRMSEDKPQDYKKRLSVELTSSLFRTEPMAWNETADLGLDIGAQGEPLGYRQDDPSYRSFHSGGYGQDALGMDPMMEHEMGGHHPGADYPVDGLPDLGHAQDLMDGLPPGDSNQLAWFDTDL
Description: Saturation binding assay with biotinylated compound on coated β-catenin. Particulars: biotinylated compound 0.1 nM to 10 μM, 2 h at room temperature. Here is the method: as §1, §2

The target of a further test is T5, TBL1 (Homo sapiens, UniProt O60907).
T5 construct: full length recombinant human TBL1 or full length recombinant human β-catenin; purchased ABNOVA
T5 sequence (O60907 1-577): T1 sequence (O60907 1-577)
Description: TBL1 inhibition (Table 5). It is filed as binding. Here is the method:
Briefly, for homologous competitive assay, a single concentration of 50 nM of biotinylated compound was added to the wells containing TBL1 recombinant protein, in the presence of various concentrations of unlinked compound (range of 0.1 nM to 10 μM) diluted in binding buffer. The sealed plate was incubated for 2 h at RT, and then processed as described above. For the heterologous competitive binding assay, 75 nM of β-catenin was used in place of the biotinylated compound, and the bounded protein was detected by anti-β-catenin antibody (Cell Signaling Tech) followed by secondary HRP-conjugated antibody.
To determine whether the ability of BC2059 to interfere with TBL1:β-catenin complex formation is due to direct interaction between TBL1 or β-catenin and the compound, we performed saturation binding assays in a in vitro system. High affinity binding Elisa 96 well plate (Maxisorp, Nunc) was coated with 100 ul to each well of full length recombinant human TBL1 or full length recombinant human β-catenin diluted to a final concentration of 1 ug/ml in carbonate/bicarbonate coating buffer, sealed to prevent evaporation, and incubated O/N at 4° C. After washing the plate 3 times with PBS 0.05% Tween-20, and blocking the plate with 200 μl of PBS 1% BSA each well for 1 h at RT, 100 μl of biotinylated compound was added to each well containing the recombinant proteins, at concentration in the range of 0.1 nM to 10 μM, diluted in binding buffer (50 mM TrisHCl pH 7.4, 10 mM MgCl2). The sealed plate was incubated for 2 h at RT, washed 3 times with PBS 0.05% Tween-20, and then the bounded compound was detected by streptavidin-HRP conjugated antibody (Cell Signaling Tech) diluted in blocking buffer. Elisa was developed by addition of ABTS HRP substrate (SIGMA), and the optical density (OD) for each well was read with a microplate reader set to 405 nm. To validate the saturation binding assay, homologous and heterologous competitive binding experiment were performed in an in vitro system. Briefly, for homologous competitive assay, a single concentration of 50 nM of biotinylated compound was added to the wells containing TBL1 recombinant protein, in the presence of various concentrations of unlinked compound (range of 0.1 nM to 10 uM) diluted in binding buffer. The sealed plate was incubated for 2 h at RT, and then processed as described above. For the heterologous competitive binding assay, 75 nM of β-catenin was used in place of the biotinylated compound, and the bounded protein was detected by anti-β-catenin antibody (Cell Signaling Tech) followed by secondary HRP-conjugated antibody.

For another test, the system named is HCT116 cells. In words: Cell screening in HCT116 cells (Table 5). It is filed as cell-based. The settings on record: Homo sapiens, HCT-116.

A word on the IC50: it is the concentration at which inhibition is half-maximal. As usually defined, the EC50 is the concentration giving half of the maximal effect.

On to `C[C@@H]1C[C@H](C)CN(S(=O)(=O)c2ccc3c(c2)C(=NO)c2cc(S(=O)(=O)N4C[C@H](C)C[C@H](C)C4)ccc2C3=NO)C1` [Compound 1], for which, in test [1], the “disruption of the interaction of β-catenin with TBL1” value is listed as “able to disrupt the interaction of β-catenin with TBL1”. Moreover, the IC50 at TBL1:β-catenin complex (HCT 15 cells, 20 mM LiCl, test agent 6 hours, read-out: IC50, interference with TBL1 and β-catenin interaction) is 10 to 20 nM; in test [2] it was 20 nM. In addition, the “binding to β-catenin” value in test [3] is “not β-catenin”.

On TBL1, `Cc1ccc(CN(C)Cc2ccc(-c3nc(-c4cccnc4)cc(=O)[nH]3)cc2)o1` [Compound 11] yielded a concentration for a half-maximal effect (EC50) of 0.29 µM.

Turning to `CC(Nc1ncnc2[nH]cnc12)c1cnn(-c2ccccc2F)c1` (stereo not shown) [Compound 15, N-(1-(1-(2-fluorophenyl)-1H-pyrazol-4-yl)ethyl)-9H-purin-6-amine], the EC50 is 0.41 µM at TBL1:β-catenin complex (compound 0.3 nM to 3 μM for 6 h, cell lysates, read-out: EC50 μM TBL1: β-Catenine); 0.054 µM at TBL1; 0.127 µM in the test on HCT116 cells.

The compound `CC(C)N(C)Cc1ccc(-c2nc(-c3cccnc3)cc(=O)[nH]2)cc1` [Compound 12, 2-(4-((isopropyl(methyl)amino)methyl)phenyl)-6-(pyridin-3-yl)pyrimidin-4(3H)-one] came in with an EC50 on TBL1 of 102 µM.

As to `CN(Cc1ccncc1)Cc1ccc(-c2nc(-c3cccnc3)cc(=O)[nH]2)cc1` [Compound 10, 2-(4-((methyl(pyridin-4-ylmethyl)amino)methyl)phenyl)-6-(pyridin-3-yl)pyrimidin-4(3H)-one], the midpoint of the response at TBL1, the EC50, lay at 0.28 µM.
